In test [1] the test system is HCMV AD169 virus. The test is described as follows: HCMV AD169 qPCR 96-Well Assay (Example C). It counts as cell-based. As to conditions: Human betaherpesvirus 5, AD169, MRC5, 72 h; qPCR of viral DNA, MRC-5 cells, 3 days. How it is done: The hCMV quantitative PCR (qPCR) assay evaluates the ability of a compound to inhibit, directly or indirectly, the replication of hCMV viral DNA during the first 72 h following the infection. Compounds that inhibit either entry or the hCMV polymerase are active in this assay. Compounds are tested in the qPCR assay in 96-well plates, using a 9-point dose-response with 8 compounds for each 96-well plate. The assay was adapted from the method described by Schnepf et al., Rapid determination of antiviral drug susceptibility of human cytomegalovirus by real-time PCR, Antiviral Research 81 (2009) 64-67.
Final Concentrations: • 10 mM Tris-HCl pH8.0 • 50 mM KCl • 2 mM MgCl2 • 0.45% Tween20 • 0.45% Nonidet P40
Serial dilutions of the DMSO stock compound solution are performed using DMSO in columns 2-10. DMSO alone is present in columns 1 and 11. Column 12 remains empty. Diluted compounds are further diluted with DMEM 5% FBS cell culture medium.
To perform the assay, 25 μL of inhibitor dilutions freshly prepared is added to the assay plate containing 50 μL of MRC-5 cells plated the day before (30000 cells per well). In a 9 point dose-response, column 1 contains mock infected cells and serves at negative control, with the appropriate concentration of DMSO, columns 2 to 10 contain compound dilutions and column 11 contains infected cells, with the appropriate concentration of DMSO and serves as the positive control. Column 12 serves for the standard curve in the qPCR process. Twenty-five μL of virus diluted in DMEM 5% FBS medium (to infect at MOI=0.05) is added to columns 2-11 and only D-MEM 5% FBS medium to uninfected control (column 1) for a final DMSO concentration of 0.6%. Incubate plates at 37° C. in 5% CO2 incubator for 3 days. Whole cell lysates are then obtained by adding 100 μL of Cell lysis buffer to each well including freshly added Proteinase K at a ratio of 1:5 (i.e. 200 μL Proteinase K:1000 μL Cell Lysis buffer) and incubating the assay plate at 56° C. for 1 h. Plates are centrifuged at 1300 rpm for 2 minutes to remove any condensation before proceeding with the qPCR.
The cell lysate is carefully pipetted up and down to mix well and diluted 1:40 in H2O to give a final dilution of 1:80 relative to the 100 μL of lysis buffer that Is added to the cells. 5 μL of diluted lysate is used for the qPCR reaction. An incubation of 5 minutes at 95° C. in a PCR machine is required to inactivate the Proteinase K. The cell lysates can be stored at −20° C. or used to perform qPCR immediately.
A 81 bp fragment of US17 gene from AD169 is amplified by PCR using primers qHCMV7 and qHCMV8. The PCR product is cloned into pCR4 TOPO vector (Invitrogen) and a clone harboring the insert is selected. A mitochondrial DNA is also added to normalize the HCMV copy number. Serial dilutions of the US17 plasmid and mitochondrial DNA are performed in heat-inactivated lysis buffer at the same dilution as the cell lysates (1:80). Usually, a standard curve ranging from 10E6 to 10E2 copies (per well) is suitable.
A typical qPCR reaction consists of the following:
A qPCR cycle consists of an initial denaturation of DNA and activation of the Taq enzyme at 95° C. for 10 min followed by 45 cycles of 15 seconds at 95° C. and 1 min at 60° C. Fluorescence is measured at each cycle, following the elongation step at 60° C. The reaction, data acquisition and analysis are performed using AppliedBiosystems 7500 Real time PCR system or other suitable real-time PCR system.

In test [2] the test system is HCMV AD169 virus. The test is described as follows: HCMV AD169 CPE Assay (Example A). Type of test: cell-based. To be noted: Human betaherpesvirus 5, AD169, MRC5, 216 h, MRC-5 cells, 9 days, MTS readout. As for the experimental part:
This assay format is a CPE (Cytopathic effect)-based assay that determines the ability of compounds to protect cells against infection with a dye reduction assay (MTS of CellTiter 96® AQueous Non-Radioactive Cell Proliferation Assay from Promega). The conversion of MTS into aqueous, soluble formazan is performed by dehydrogenase enzymes found in metabolically active cells. The quantity of formazan product determined by absorbance at 490 nm is directly proportional to the number of living cells in culture.
(§1) Serial dilutions of the DMSO stock compound solution are performed using DMSO in columns 2-11 and 14-23. DMSO alone is present in columns 1, 12, 13 and 24. Four μL of the DMSO serial dilutions is obtained and diluted using […] of D-MEM 5% FBS culture medium to obtain 4% DMSO (7×).
To perform the assay, 10 µL of the freshly prepared 4% DMSO serial dilution plate is added to the assay plate containing 40 μL of MRC-5 cells plated the day before (10000 cells per well). Twenty μL of diluted virus is added to columns 2-12 and 14-24 and only D-MEM 5% FBS medium to uninfected control (columns 1 and 13) for a final DMSO concentration of 0.6%.
The virus dilution is based on the amount of virus required to obtain a Signal-to-Background of 3-4 (generally between 0.1 and 1 μL of virus stock per well or MOI=0.05). The assay plates are incubated at 37° C. with 5% CO2 for 9 days in order to obtain 100% CPE in infected control without compound (columns 12 and 24). Ten μL of freshly mixed room temperature MTS/PMS (1:20 v/v) is added and the plates are incubated at 37° C. with 5% CO2 for 4-5 h (until signal saturation at 2.3 in the 100% CPE control). The plates are sealed with TopSeal for biosafety and read on the Envision plate reader (Perkin-Elmer) or equivalent at OD 492 nm.

The subject of test [3] is HCMV AD169-Bac-Luc2 US2-US6 clone #26 virus. The test is described as follows: HCMV AD169-Bac Luciferase Assay (Example B). Type of test: cell-based, Human Cytomegalovirus. As to conditions: Human betaherpesvirus 5, AD169, MRC5, 72 h, read-out: EC50 Example B.
Text: This assay format is a luciferase reporter-based assay that determines the ability of compounds to inhibit the infection by detecting a luciferase signal decrease following the addition of BIGlo substrate (preparation indicated below) directly in the culture media. Mono-oxygenation of luciferin is catalyzed by luciferase in the presence of Mg2+, ATP and molecular oxygen. The generation of oxyluciferin is a luminescent reaction that can be detected with the proper platereader. Human Cytomegalovirus AD169-Bac is obtained from Dr. Thomas Shenk at Princeton University (reference paper Yu et al. 2002—J. Virol. 76 (5):2316-2328, herein incorpoarated by reference) and modified by recombineering to introduce a humanized firefly luciferase gene (Luc2) at the US2-US6 position in the HCMV genome. The virus is expanded in MRC-5 cells.
as §1
To perform the assay, 7 μL of the freshly prepared 4% DMSO serial dilution plate is added to the assay plate containing […] of MRC-5 cells plated the day before (10000 cells per well). Seventeen μL of diluted virus is added to columns 2-12 and 14-24 and only D-MEM 5% FBS medium to uninfected control (columns 1 and 13) for a final DMSO concentration of 0.6%. The virus dilution is based on the amount of virus required to obtain the highest luciferase signal possible without CPE (generally between 0.05 and 1 μL of virus stock per well or MOI=0.02). The assay plates are incubated at 37° C. with 5% CO2 for 3 days. Fifteen μL of room temperature BIGlo buffer is added to room temperature assay plates also incubated at room temperature for 15 minutes. The plates are sealed with TopSeal for biosafety and the luminescence signal is read on the TopCount plate reader (Perkin-Elmer) or equivalent.

Take `O=C(Nc1ccc(-c2cnc(-c3cccc(C(F)(F)F)c3)[nH]2)cc1)c1cscn1` [Compound 1018]: the EC50 was found to be 270 nM in test [1], 380 nM in test [2] and 100 nM in test [3].

For the molecule `O=C(Nc1ccc(-c2nnc(Nc3ccccc3)[nH]2)cc1)c1cscn1` [Compound 1039], the EC50 in test [1] stood at 390 nM; in test [2], 550 nM; in test [3], 103 nM.

`O=C(Nc1ccc(-c2cnc(-c3cccc(C(F)(F)F)c3)[nH]2)cn1)c1cscn1` [Compound 1052]: the results for the EC50 in test [1], in test [2] and in test [3] were 1800 nM, 4200 nM and 450 nM, respectively.

With `Cn1cc(-c2cccc(C(F)(F)F)c2)nc1-c1ccc(NC(=O)c2cscn2)cc1` [Compound 1097], the EC50 in test [2] turned out to be 280 nM; in test [3] it was 60 nM.

As to `O=C(Nc1ccc(-c2ncc(-c3cccc(C(F)(F)F)c3)[nH]2)cc1)c1csnn1` [Compound 1139], the EC50 in test [2] was 260 nM; in test [3] it was 111 nM.

On to `O=C(Nc1ccc(-c2cnc(-c3cccc(C(F)(F)F)c3)[nH]2)cc1)c1cocn1` [Compound 1143], for which the EC50 in test [2] worked out at 1220 nM; in test [3] it was 245 nM.

Usually EC50 stands for the concentration needed to bring the measured effect to its halfway point.

Values taken from patent US9284310B2, “Inhibitors of cytomegalovirus” (Boehringer Ingelheim International GmbH, priority 2012, dated 2016).
